Experimental data taken from publication PMC11080019, “Synthesis and Biological Profiling of Quinolino-Fused 7-Deazapurine Nucleosides” (ACS Omega, 2024).

Legend:
BJ = test: MTS cytotoxicity assay, BJ fibroblasts; format: cell-based; settings: Homo sapiens; nonmalignant fibroblasts BJ; top concentration 50 μM
Protocol: (§1) All the titled nucleosides 14a–g were tested for their in vitro cytotoxic activity. The following cancer cell lines were used for the study: A549 (lung cancer), CCRF-CEM (acute T-lymphoblastic leukemia), HCT116 and HCT116p53^– (colon carcinoma, parental and p53 deficient), K562 (chronic myelogenous leukemia), and U2OS (bone osteosarcoma) using a colorimetric MTS assay.[25] Additionally, HeLa (cervical cancer), HepG2 (hepatocellular liver carcinoma), and HL60 (acute promyelocytic leukemia) cell lines were tested using the luminescent CellTiter-Glo assay. For comparison, nonmalignant fibroblast cell lines (BJ and MRC-5) were included in the MTS assay, whereas noncancerous human dermal fibroblasts (NHDF) were assessed with the CellTiter-Glo assay.[26] Initial screenings were done at 50 μM concentration for the MTS assay and 10 μM for the CellTiter-Glo assay.
(§2) Unless otherwise stated, all reactions were carried out under an argon atmosphere. An oil bath was used for reactions requiring heating. Thin-layer chromatography (TLC) was performed on Merck silica gel 60 F-254 aluminum sheets. Visualization was obtained by UV light (λmax = 254 or 366 nm). High-performance flash chromatography (HPFC) was conducted with a Combi Flash Rf instrument from Teledyne Isco Inc. using SiO2 (particle size 0.040–0.063 mm, 230–400 mesh) from Fluorochem in refillable flash columns or HP C18 Redi Sep Rfgold flash columns with the solvent gradient indicated in the corresponding procedures. Preparative high-pressure liquid chromatography (prep. HPLC) was performed on a Waters 2535 Quaternary Gradient System with a fraction collector. Melting points (m.p.) were measured by Bohunka Šperlichová at Charles University Prague on a Büchi Melting Point B-545 apparatus using open glass capillaries and are uncorrected. Optical rotation of final nucleosides was measured by the analytical laboratory at IOCB Prague using an AUTOPOL IV automatic polarimeter from Rudolph Research Analytical at 20 °C and 589 nm. The sample concentration c is given in g mL^–1. ^1H and ^13C{^1H} NMR spectra were measured on a Bruker Avance III 500 MHz spectrometer at 25 °C in CDCl3 referenced to the residual solvent signal (δH = 7.26 ppm, δC = 77.16 ppm), in deuterated dimethyl sulfoxide (DMSO-d6) referenced to the residual solvent signal (δH = 2.50 ppm, δC = 39.52 ppm], or in D2O with tBuOH-d10 as the external standard [δH = 1.25 ppm, δC = 31.6 ppm]. ^31P NMR NMR spectra were referenced externally to the signal of H3PO4. Coupling constants (J) are given in Hz, and the multiplets are described as s (singlet), d (doublet), t (triplet), q (quartet), m (multiplet), and b (broad). ^13C{^1H} NMR experiments were broadband proton-decoupled and were performed using APT pulse sequence. DFQ-COSY, HSQC, and HMBC experiments were used to assign the ^1H and ^13C NMR signals where required. ROESY experiments were used to confirm the relative stereochemistry of nucleosides 11 and 12. To simplify the assignment, the benzoyl group attached to the 2′-hydroxy group of the ribofuranose ring was given the letter A, the one attached to the 3′-hydroxy group is considered B, and the benzoyl group at 5′-OH is called C (Figure 3). All spectra can be found in Supporting Information S6. In the ROESY spectra for nucleosides 11, 12-β, and 12-α, the important relations for the determination of the stereochemistry are highlighted. Infrared spectra (IR) were recorded on a Bruker ALPHA FT-IR spectrometer with a single-reflection Platinum ATR module. The compounds were measured in their initial state of appearance at 20 °C, and their absorption bands were reported in wavenumbers (ṽ) in the range between 4000 and 400 cm^–1. Intensities are described as strong (s), medium (m), and weak (w). UV/vis spectra were measured on a Varian Cary 100 Bio UV–visible spectrophotometer in the range 250–800 nm using transparent 1.5 mL quartz cuvettes. Fluorescence spectra were recorded on a Fluoromax 4 spectrofluorimeter from HORIBA Scientific. […]

MRC-5 = test: MTS cytotoxicity assay, MRC-5 fibroblasts; format: cell-based; settings: Homo sapiens, MRC5; nonmalignant fibroblasts MRC-5; top concentration 50 μM
Protocol: as §1, §2

A549 (lung cancer) = test: MTS cytotoxicity assay, A549; format: cell-based; settings: Homo sapiens
Protocol: as §1, §2

[1] = test system: CCRF-CEM (acute T-lymphoblastic leukemia); test: MTS cytotoxicity assay, CCRF-CEM; format: cell-based; settings: for IC50: Homo sapiens
Protocol: as §1, §2

[2] = test system: HCT116 (colon carcinoma, parental); test: MTS cytotoxicity assay, HCT116; format: cell-based; settings: Homo sapiens, HCT-116
Protocol: as §1, §2

[3] = test system: HCT116p53– (colon carcinoma, p53 deficient); test: MTS cytotoxicity assay, HCT116p53–; format: cell-based
Protocol: as §1, §2

[4] = test system: K562 (chronic myelogenous leukemia); test: MTS cytotoxicity assay, K562; format: cell-based; settings: Homo sapiens
Protocol: as §1, §2

U2OS (bone osteosarcoma) = test: MTS cytotoxicity assay, U2OS; format: cell-based; settings: Homo sapiens
Protocol: as §1, §2

[5] = test system: noncancerous human dermal fibroblasts (NHDF); test: CellTiter-Glo cytotoxicity assay, NHDF; format: cell-based; settings: top concentration 10 μM
Protocol: as §1, §2

HeLa (cervical cancer) = test: CellTiter-Glo cytotoxicity assay, HeLa; format: cell-based; settings: Homo sapiens, top concentration 10 μM
Protocol: as §1, §2

[6] = test system: HepG2 (hepatocellular liver carcinoma); test: CellTiter-Glo cytotoxicity assay, HepG2; format: cell-based; settings: Homo sapiens, top concentration 10 μM
Protocol: as §1, §2

[7] = test system: HL60 (acute promyelocytic leukemia); test: CellTiter-Glo cytotoxicity assay, HL60; format: cell-based; settings: Homo sapiens, HL-60, top concentration 10 μM
Protocol: as §1, §2

[8] = test system: cancer cell lines and nonmalignant fibroblast cell lines; test: In vitro cytotoxic activity across the whole cell line panel (MTS and CellTiter-Glo); format: cell-based; settings: for cytotoxicity against nonmalignant cell lines BJ, MRC-5, and NHDF (in words): MRC-5, NHDF; for cytotoxic activity across tested cell lines (in words): whole panel of tested cell lines
Protocol: as §1, §2

melting point | Compound | IC50 (BJ) | IC50 (MRC-5) | IC50 (A549 (lung cancer)) | activity against the CCRF-CEM leukemia line (in words) [1] | IC50 [1] | IC50 [2] | IC50 [3] | IC50 [4] | IC50 (U2OS (bone osteosarcoma)) | IC50 [5] | IC50 (HeLa (cervical cancer)) | IC50 [6] | IC50 [7] | cytotoxicity against nonmalignant cell lines BJ, MRC-5, and NHDF (in words) [8] | cytotoxic activity across tested cell lines (in words) [8]
– | OC[C@H]1O[C@@H](n2c3ccc4ncccc4c3c3c(-c4ccco4)ncnc32)[C@H](O)[C@@H]1O [14a, 11-(Furan-2-yl)-7-(β-D-ribofuranosyl)pyrimido[5′,4′:4,5]pyrrolo[3,2-f]quinoline] | > 50 µM | > 50 µM | > 50 µM | weak activity | 38.5 µM | > 50 µM | > 50 µM | > 50 µM | > 50 µM | > 10 µM | > 10 µM | > 10 µM | > 10 µM | – | –
124 °C | OC[C@H]1O[C@@H](n2c3ccc4ncccc4c3c3c(-c4cc5ccccc5o4)ncnc32)[C@H](O)[C@@H]1O [14b, 11-(Benzofuran-2-yl)-7-(β-D-ribofuranosyl)pyrimido[5′,4′:4,5]pyrrolo[3,2-f]quinoline] | > 50 µM | > 50 µM | > 50 µM | weak activity | 18.6 µM | 36 µM | 43.2 µM | > 50 µM | > 50 µM | > 10 µM | > 10 µM | 2.8 µM | > 10 µM | – | –
256 °C | Cc1ncnc2c1c1c3cccnc3ccc1n2[C@@H]1O[C@H](CO)[C@@H](O)[C@H]1O [14c, 11-Methyl-7-(β-D-ribofuranosyl)pyrimido[5′,4′:4,5]pyrrolo[3,2-f]quinoline] | > 50 µM | > 50 µM | 26.4 µM | – | 6.5 µM | 17 µM | 17 µM | 11.9 µM | 13.1 µM | > 10 µM | > 10 µM | > 10 µM | 6.7 µM | no cytotoxicity | moderate cytotoxic activity
240 °C | CN(C)c1ncnc2c1c1c3cccnc3ccc1n2[C@@H]1O[C@H](CO)[C@@H](O)[C@H]1O [14d, 11-(N,N-Dimethylamino)-7-(β-D-ribofuranosyl)pyrimido[5′,4′:4,5]pyrrolo[3,2-f]quinoline] | > 50 µM | > 50 µM | > 50 µM | – | > 50 µM | > 50 µM | > 50 µM | > 50 µM | > 50 µM | > 10 µM | > 10 µM | > 10 µM | > 10 µM | – | did not show any cytotoxicity whatsoever
210 to 235 °C (dec.) | Nc1ncnc2c1c1c3cccnc3ccc1n2[C@@H]1O[C@H](CO)[C@@H](O)[C@H]1O [14e, 11-Amino-7-(β-D-ribofuranosyl)pyrimido[5′,4′:4,5]pyrrolo[3,2-f]quinoline] | > 50 µM | > 50 µM | > 50 µM | – | 8.5 µM | 18.9 µM | 17.3 µM | 10 µM | 17.1 µM | > 10 µM | > 10 µM | 8.6 µM | 5.2 µM | no cytotoxicity | moderate cytotoxic activity
190 to 205 °C (dec.) | COc1ncnc2c1c1c3cccnc3ccc1n2[C@@H]1O[C@H](CO)[C@@H](O)[C@H]1O [14f, 11-Methoxy-7-(β-D-ribofuranosyl)pyrimido[5′,4′:4,5]pyrrolo[3,2-f]quinoline] | > 50 µM | > 50 µM | 27.4 µM | – | 8 µM | 9.8 µM | 23.1 µM | 40.2 µM | 17.3 µM | > 10 µM | > 10 µM | > 10 µM | 5.2 µM | no cytotoxicity | moderate cytotoxic activity
228 to 242 °C (dec.) | CSc1ncnc2c1c1c3cccnc3ccc1n2[C@@H]1O[C@H](CO)[C@@H](O)[C@H]1O [14g, 11-Methylthio-7-(β-D-ribofuranosyl)pyrimido[5′,4′:4,5]pyrrolo[3,2-f]quinoline] | 36.8 µM | 36.8 µM | 17 µM | – | 5.1 µM | 9.3 µM | 16.2 µM | 18.6 µM | 15 µM | > 10 µM | > 10 µM | > 10 µM | 9.3 µM | – | moderate cytotoxic activity
